Laboratory results as given in US7888355B2, “Compositions and methods for inhibiting growth and metastasis of melanoma” (Burnham Institute for Medical Research, priority 2007, dated 2011).

Legend:
caspase 8 = test: Caspase 8 immunoblot in SW1 cells; type: cell-based, mouse; conditions: 0.5 μM AIGA, 0.5 or 1.0 μM CSL, 24 hours
Procedure: (§1) Mitochondrial activity and apoptosis. Cells were exposed to the chemicals for 12-48 hours as indicated in Results. To measure changes in mitochondrial activity reflective of general cell viability, the ATPLITE ATP detection assay was used according to the manufacturer's recommendations (Perkin Elmer). Apoptosis analysis was performed by flow cytometry of PI-stained cells. The percentage of cells to the left of the diploid G0/1 peak, characteristic of hypodiploid cells that have partially lost DNA, was calculated as percentage of apoptotic cells (Bhoumik et al., PNAS 101:4222-7, 2004). Analysis of changes in Caspase 8 expression pattern was performed using immunoblot analysis.
Immunoblot analysis. Proteins prepared from cells at the indicated time points using RIPA buffer and 75 μg were separated on SDS-PAGE followed by immunoblot analysis using the antibodies indicated. […]
The finding that CSL and AIGA reduced cell viability in melanoma was made using the ATPLITE assay, which monitors the degree of mitochondrial ATP release, a marker for mitochondrial activity. […] Immunoblot analysis using caspase 8 antibody monitored full length and cleaved forms (active) of caspase 8. β-actin was used as a loading control.

SW1 cells = test: cells; type: cell-based, mouse; conditions: for effect of JNK inhibitor SP600125 on compound-induced cell death: 30-minute pretreatment with SP600125 (10 μM), then compound 20 h
Procedure: Cell lines. Mouse melanoma (SW1) and human melanoma (LU1205) cells were maintained in DMEM supplemented with 10% FBS, L-glutamine and antibiotics. The human melanoma cell lines MEWO and WM115 were maintained in RPMI supplemented with 10% FBS and antibiotics. Primary mouse melanocytes were cultured in F-12 media supplemented with 10% FBS, antibiotics, IBMX (isobuthyl-methylxantine), bovine pituitary extract, and TPA.
as §1, with “analysis. […]” for “analysis.”
Characterization of CSL and AIGA effects on mouse melanoma cells. The structures of AIGA and CSL are depicted in FIGS. 1a and 1b. AIGA was tested for cytotoxicity at concentrations ranging between 0.1 and 2 μM, whereas CSL was used at a concentration of 0.01 to 0.3 μM. SW1 cells or normal melanocytes were seeded on 96 well plates and 24 h late, cells were treated with the indicated concentrations of ATF2 50-100 peptide, AIGA, or CSL for 20 h. ATF2 50-100 peptide (cloned in mammalian expression vector in frame with penetratin was transfected with the aid of lipofectamine) was used as a positive control. ATP levels were used as an indicator of cell viability and were measured using the ATPLITE ATP detection assay kit. The number of surviving cells upon AIGA treatment was normalized to the number of surviving cells under the control treatment, and the normalized number was designated as the “% Viability.” Results shown in FIGS. 1c-1f represent 3 experiments. Treatment of SW1 melanoma cells with 1 μM of AIGA reduced the viability of melanoma cells to 10%, (FIG. 1c). Treatment of the SW1 cells with 0.05 μM of CSL reduced the viability of melanoma cells to 50%, and 0.1 μM reduced it to 10% (FIG. 1d). […] Normal melanocytes and fibroblasts were used as a control.
Thus, the two compounds were evaluated to determine if they require JNK activity for their effects on melanoma cells. To this end, the ability of AIGA or CSL to affect the viability of melanoma cells in the presence of a JNK inhibitor was tested. SW1 cells, with or without a 30-minute pretreatment with the JNK inhibitor SP600125 (10 μM), were contacted with AIGA or CSL at the indicated concentrations for 20 h. ATP levels were used to measure the cell viability using the ATPLITE kit. The number of surviving cells upon AIGA or CSL treatment was normalized to the number of surviving cells under the control treatment, and the normalized number was designated as the “% Viability.” Shown are representative results from 2 experiments. […] Of note, inhibition of JNK activity was more pronounced at lower concentrations of CSL compared with AIGA. […] To assess whether these compounds affect JNK activity, changes in JNK phosphorylation on residues 183/185, which are required for its kinase activity, were monitored. Western blot analysis for JNK phosphorylation on residues 183/185 was performed on protein extracts that were prepared from cells treated with AIGA at concentrations of 0.5 μM, 1.0 μM, and 2.0 μM and a control with no AIGA treatment. Duplicate samples were treated with JNK inhibitor (SP600125). Total level of JNK was analyzed in parallel. […]

SMILES	cleaved (active) forms of caspase 8 (caspase 8)	effect of JNK inhibitor SP600125 on compound-induced cell death (SW1 cells)	viability at 1 µM (SW1 cells; Mus musculus, 20 h, read-out: % Viability of SW1 melanoma cells) [%]	viability at 0.05 µM (SW1 cells; Mus musculus, 0.05 μM, 20 h, read-out: % Viability of SW1 melanoma cells) [%]	viability at 0.1 µM (SW1 cells; Mus musculus, 0.1 μM, 20 h, read-out: % Viability of SW1 melanoma cells) [%]	EC50 (SW1 cells; Mus musculus, numeric EC50 cells of the column, read-out: Activity or EC50 (μM) in SW1 cells) [µM]
CC(=O)Oc1c2c(c(CC=C(C)C)c3c1C(=O)C1=C[C@@H]4CC5C(C)(C)OC(C/C=C(\C)C(=O)O)(C4=O)[C@@]15O3)OC(C)(CCC=C(C)C)C=C2 (some centres unmarked) [AIGA, Acetyl isogambogic acid]	increase in intensity of the cleaved forms caspase 8	attenuated the ability of AIGA or CSL to elicit the cell death	10	–	–	–
CC1=C(O)C(=O)C=C2C1=CC=C1[C@@]2(C)CC[C@@]2(C)[C@@H]3C[C@](C)(C(=O)O)CC[C@]3(C)CC[C@]12C [Celastrol]	increase in intensity of the cleaved forms caspase 8	attenuated the ability of AIGA or CSL to elicit the cell death	–	50	10	~0.1
